Tests used:
Test in all cases: AUC of viability dose-response curve (% viability x log10 dose units); higher = less sensitive
Conditions in all cases: 48 h
P12-Ichikawa = tested on: P12-Ichikawa
Summary of the method: (§1)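 Leukemia cells adapted to each medium were seeded at 500 or 1000 cells/well in 1536-well plates and dosed with library compounds in DMSO at 11 threefold doses from 47 μM to 0.79 nM for 48 h at 37°C. CellTiter-Glo One luminescence was normalised per plate to DMSO and cell-free wells, then fitted with a four-parameter log-logistic model over log10 doses. Area under the curve was taken from this fit by the trapezoidal rule, with curves above full viability scaled and curves failing quality control removed.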

SEM cells = tested on: SEM cells
Summary of the method: as §1

NOMO1 = tested on: NOMO1
Summary of the method: as §1

[1] = RPMI 5 mM glucose + 10% dialyzed FBS

| SMILES | AUC of viability dose-response curve (P12-Ichikawa; HPLM + 10% dialyzed FBS) | AUC of viability dose-response curve (P12-Ichikawa; RPMI 5 mM glucose + 10% FBS) | AUC of viability dose-response curve (P12-Ichikawa; [1]) | AUC of viability dose-response curve (SEM cells; HPLM + 10% dialyzed FBS) | AUC of viability dose-response curve (SEM cells; RPMI 5 mM glucose + 10% FBS) | AUC of viability dose-response curve (SEM cells; [1]) | AUC of viability dose-response curve (NOMO1; HPLM + 10% dialyzed FBS) | AUC of viability dose-response curve (NOMO1; RPMI 5 mM glucose + 10% FBS) | AUC of viability dose-response curve (NOMO1; [1]) |
| --- | --- | --- | --- | --- | --- | --- | --- | --- | --- |
| C[C@H](Cc1ccc(O)c(O)c1)[C@@H](C)Cc1ccc(O)c(O)c1 | 443 | 432 | 436 | 394 | 453 | 453 |  |  |  |
| NNc1nncc2ccccc12 | 470 | 452 | 463 | 436 | 454 | 438 | 472 | 461 | 466 |
| Oc1ccc(-c2ccc(-c3cc(Nc4cccc(CNC5CC5)c4)[nH]n3)cc2)c(O)c1 | 403 | 372 | 404 | 321 | 376 | 374 | 402 | 396 | 409 |
| Cc1ccc(-c2cc(C(F)(F)F)nn2-c2ccc([S+](N)(=O)[O-])cc2)cc1 | 471 | 463 | 468 | 464 | 460 | 470 | 451 | 468 | 463 |
| O=C(NCc1ccccc1)c1csc(Nc2ccncn2)n1 | 386 | 358 | 367 | 310 | 287 | 310 | 345 | 331 | 335 |
| COc1ccc(C2(C#N)CCC(C(=O)O)CC2)cc1OC1CCCC1 (configuration not stated) | 475 | 466 | 464 | 439 | 443 | 443 | 465 | 434 | 471 |
| CCCCc1nc2cc(/C=C/C(=O)NO)ccc2n1CCN(CC)CC | 345 | 337 | 348 | 344 | 345 | 303 | 370 | 326 | 349 |
| Cc1nc(N)ncc1-c1nc(N2CCOCC2)c2sc(C(C)(C)O)cc2n1 | 213 | 279 | 276 | 249 | 163 | 220 | 204 | 264 | 285 |
| Clc1ccccc1C(c1ccccc1)(c1ccccc1)n1ccnc1 | 448 | 426 | 448 | 425 | 416 | 412 | 451 | 443 | 468 |
| CS[C@H]1SC[C@@H]2C(=O)N(C)[C@H](C(C)C)C(=O)OC[C@H](NC(=O)c3cnc4ccccc4n3)C(=O)N[C@H](C)C(=O)N(C)[C@H]1C(=O)N(C)[C@H](C(C)C)C(=O)OC[C@H](NC(=O)c1cnc3ccccc3n1)C(=O)N[C@H](C)C(=O)N2C | 176 | 148 | 140 |  |  |  | 140 | 142 | 141 |
| C[C@@H](N)C1CC[C@@H](CC1)C(=O)NC2=CC=NC=C2 (some centres not stated) | 469 | 470 | 470 | 438 | 452 | 464 | 472 | 462 | 466 |
| CCOC(=O)[C@@H](N)CCC(=O)N[C@@H](CSCc1ccccc1)C(=O)N[C@@H](C(=O)OCC)c1ccccc1 | 467 | 458 | 458 | 466 | 473 | 461 | 468 | 466 | 474 |
| CC(C)(C)C1=CC(=C(NC(=O)C/2=C/NC3=C(C=CC=C3)C2=O)C=C1O)C(C)(C)C | 471 | 452 | 455 | 461 | 467 | 470 | 447 | 462 | 464 |
| CCCCCCCCCCCC/1=C(O)/C(=O)/C=C(O)\C1=O | 357 | 357 | 375 | 462 | 454 | 457 | 326 | 301 | 326 |
| Oc1ccc([C@@H]2Oc3ccc(O)cc3[C@@H]3CCC[C@@H]32)cc1 | 394 | 372 | 349 |  |  |  | 412 | 423 | 406 |
| NCCc1ccc(O)c(O)c1 | 464 | 463 | 474 | 431 | 450 | 449 | 410 | 426 | 429 |
| N#Cc1ccc(NC(=O)Nc2ccccc2Br)c2nn[nH]c12 | 475 | 457 | 465 | 448 | 473 | 449 | 477 | 463 | 456 |
| CCOCC(O)COc1ccc(NC(=O)CC[S+](C)C)cc1 (configuration not stated) | 442 | 452 | 408 | 451 | 424 | 433 | 460 | 411 | 413 |
| CN1CCC(CC1)=C2C3=C(C=CC=C3)\C=C/C4=C2C=CC=C4 | 473 | 467 | 477 | 469 | 467 | 468 | 470 | 467 | 468 |
| NC(CO)C(=O)NNCc1ccc(O)c(O)c1O (configuration not stated) | 450 | 435 | 428 | 450 | 439 | 437 | 448 | 431 | 454 |
| C[C@H](NCc1ccc(OCc2cccc(F)c2)cc1)C(N)=O | 450 | 443 | 443 | 323 | 325 | 290 | 445 | 461 | 454 |
| Cn1cnc([N+](=O)[O-])c1Sc1ncnc2nc[nH]c12 | 381 | 365 | 367 | 398 | 337 | 299 | 353 | 342 | 353 |
| Cc1ccc(/C=N/NC(=O)c2ccccc2Oc2ccccc2)o1 | 452 | 432 | 410 | 452 | 468 | 388 | 456 | 418 | 457 |
| C[N]1C=C(C=N1)C2=CC=C3N=CC\4=C(N(C(=O)\C=C4)C5=CC6=C(CCN6C(=O)C=C)C=C5)C3=C2 | 404 | 391 | 393 | 359 | 360 | 353 | 359 | 396 | 375 |

Source: the supplement of paper PMC11451515
